Results published in ChEMBL document CHEMBL3137667, “[Drug-induced liver injury; fourteenth updated edition of the bibliographic database of liver injuries and related drugs]” (Gastroenterol Clin Biol, 2004).

What was measured:
[1] = Highest frequency of moderate liver toxicity observed during clinical trials, expressed as a percentage. [column '% BIOL' in source]; conditions: human
[2] = human
[3] = human, serum
[4] = Times to onset, minimal and maximal, observed in the indexed observations. [column 'DELAI' in source]; conditions: human
[5] = human, serum, 4383 h
[6] = human; remark: listed apart in the source
[7] = human; remark: listed apart in the source
[8] = human; remark: listed apart in the source
[9] = human; remark: listed apart in the source
[10] = human; remark: listed apart in the source
[11] = Highest frequency of acute liver toxicity observed during clinical trials, expressed as a percentage. [column '% AIGUE' in source]; conditions: human
[12] = human; remark: listed apart in the source
[13] = human; remark: listed apart in the source
[14] = human; remark: listed apart in the source
[15] = human, serum; remark: listed apart in the source
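For Hepatotoxicity (association with vascular disease) in this document: count of indexed literature references reporting vascular liver injury in humans, e.g. peliosis hepatitis, hepatic veno-occlusive disease or Budd-Chiari syndrome.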
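For Hepatotoxicity (benign tumour) in this document: value is a count of indexed literature references citing a benign tumour confirmed by histopathology.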
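For Hepatotoxicity (choleostasis) in this document: human cholestatic liver injury, shown by histopathology or by peak ALT or AST elevation over alkaline phosphatase ratio below 2, value counts indexed literature reports.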
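For Hepatotoxicity (chronic liver disease) in this document: chronic liver injury confirmed by histopathology or persistently raised serum aminotransferase activity beyond 6 months, value given as the count of indexed literature references.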
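For Hepatotoxicity (cirrhosis) in this document: value is a count of indexed literature references reporting cirrhosis confirmed by histopathology.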
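For Hepatotoxicity (cytolytic) in this document: human cytolytic liver injury, shown by histopathology or by a ratio above 5 of peak ALT or AST elevation to alkaline phosphatase elevation, value counts indexed references.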
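For Hepatotoxicity (granulomatous hepatitis) in this document: value is a count of indexed literature references reporting granulomatous liver disease confirmed by histopathology.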
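For Hepatotoxicity (malignant tumour) in this document: malignant tumour confirmed by histopathology, value gives the count of indexed literature references reporting it.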
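For Hepatotoxicity (severe hepatitis) in this document: human clinical data: severe hepatitis, meaning potentially life-threatening liver failure or clinically observed cases, the value counts how many indexed literature references report it.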
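For Hepatotoxicity (steatosis) in this document: steatosis confirmed by histopathology, value is the count of indexed references.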

CN(c1nccc(=O)[nH]1)C1CCN(c2nc3ccccc3n2Cc2ccc(F)cc2)CC1 [MIZOLASTINE]
Hepatotoxicity (moderate) [1]: 0% | Hepatotoxicity (benign tumour) [2]: 0 | Hepatotoxicity (moderate) [3]: 0 | Hepatotoxicity (time to onset) [4]: 2 months | Hepatotoxicity (chronic liver disease) [5]: 0 | Hepatotoxicity (choleostasis) [6]: 0 | Hepatotoxicity (severe hepatitis) [7]: 0 | Hepatotoxicity (cirrhosis) [8]: 0 | Hepatotoxicity (malignant tumour) [9]: 0 | Hepatotoxicity (association with vascular disease) [10]: 0 | Hepatotoxicity (acute) [11]: 0% | Hepatotoxicity (cytolytic) [12]: 2 | Hepatotoxicity (granulomatous hepatitis) [13]: 0 | Hepatotoxicity (steatosis) [14]: 0 | Hepatotoxicity (acute) [15]: 2

C(=C\c1ccccc1)/CN1CCN(C(c2ccccc2)c2ccccc2)CC1 [CINNARIZINE]
Hepatotoxicity (moderate) [1]: 0% | Hepatotoxicity (benign tumour) [2]: 0 | Hepatotoxicity (moderate) [3]: 0 | Hepatotoxicity (time to onset) [4]: 3 weeks - 7 weeks | Hepatotoxicity (chronic liver disease) [5]: 0 | Hepatotoxicity (choleostasis) [6]: 2 | Hepatotoxicity (severe hepatitis) [7]: 0 | Hepatotoxicity (cirrhosis) [8]: 0 | Hepatotoxicity (malignant tumour) [9]: 0 | Hepatotoxicity (association with vascular disease) [10]: 0 | Hepatotoxicity (acute) [11]: 0% | Hepatotoxicity (cytolytic) [12]: 0 | Hepatotoxicity (granulomatous hepatitis) [13]: 0 | Hepatotoxicity (steatosis) [14]: 0 | Hepatotoxicity (acute) [15]: 2

CC(C)Cc1ccc(CC(=O)O)cc1 [IBUFENAC]
Hepatotoxicity (moderate) [1]: 40% | Hepatotoxicity (benign tumour) [2]: 0 | Hepatotoxicity (moderate) [3]: 2 | Hepatotoxicity (time to onset) [4]: 4 months | Hepatotoxicity (chronic liver disease) [5]: 0 | Hepatotoxicity (choleostasis) [6]: 1 | Hepatotoxicity (severe hepatitis) [7]: 1 | Hepatotoxicity (cirrhosis) [8]: 0 | Hepatotoxicity (malignant tumour) [9]: 0 | Hepatotoxicity (association with vascular disease) [10]: 0 | Hepatotoxicity (acute) [11]: 5% | Hepatotoxicity (cytolytic) [12]: 3 | Hepatotoxicity (granulomatous hepatitis) [13]: 0 | Hepatotoxicity (steatosis) [14]: 0 | Hepatotoxicity (acute) [15]: 3

CCCC1O[C@@H]2C[C@H]3[C@@H]4CCC5=CC(=O)C=C[C@]5(C)[C@H]4[C@@H](O)C[C@]3(C)[C@]2(C(=O)CO)O1 (stereo not given in full) [BUDESONIDE]
Hepatotoxicity (moderate) [1]: 0% | Hepatotoxicity (benign tumour) [2]: 0 | Hepatotoxicity (moderate) [3]: 0 | Hepatotoxicity (time to onset) [4]: 19 days | Hepatotoxicity (chronic liver disease) [5]: 0 | Hepatotoxicity (choleostasis) [6]: 0 | Hepatotoxicity (severe hepatitis) [7]: 0 | Hepatotoxicity (cirrhosis) [8]: 0 | Hepatotoxicity (malignant tumour) [9]: 0 | Hepatotoxicity (association with vascular disease) [10]: 0 | Hepatotoxicity (acute) [11]: 0% | Hepatotoxicity (cytolytic) [12]: 1 | Hepatotoxicity (granulomatous hepatitis) [13]: 0 | Hepatotoxicity (steatosis) [14]: 0 | Hepatotoxicity (acute) [15]: 1

DALTEPARIN SODIUM
Hepatotoxicity (moderate) [1]: 2.6% | Hepatotoxicity (benign tumour) [2]: 0 | Hepatotoxicity (moderate) [3]: 3 | Hepatotoxicity (time to onset) [4]: 4 days | Hepatotoxicity (chronic liver disease) [5]: 0 | Hepatotoxicity (choleostasis) [6]: 0 | Hepatotoxicity (severe hepatitis) [7]: 0 | Hepatotoxicity (cirrhosis) [8]: 0 | Hepatotoxicity (malignant tumour) [9]: 0 | Hepatotoxicity (association with vascular disease) [10]: 0 | Hepatotoxicity (acute) [11]: 0% | Hepatotoxicity (cytolytic) [12]: 0 | Hepatotoxicity (granulomatous hepatitis) [13]: 0 | Hepatotoxicity (steatosis) [14]: 0 | Hepatotoxicity (acute) [15]: 0

N[C@@H]1[C@H]2CN(c3nc4c(cc3F)c(=O)c(C(=O)O)cn4-c3ccc(F)cc3F)C[C@@H]12 [TROVAFLOXACIN]
Hepatotoxicity (moderate) ([1]; Liver): 2.3% | Hepatotoxicity (benign tumour) [2]: 0 | Hepatotoxicity (moderate) [3]: 4 | Hepatotoxicity (time to onset) [4]: 5 days - 4 weeks | Hepatotoxicity (chronic liver disease) [5]: 0 | Hepatotoxicity (choleostasis) [6]: 1 | Hepatotoxicity (severe hepatitis) ([7]; Liver): 1 | Hepatotoxicity (cirrhosis) [8]: 0 | Hepatotoxicity (malignant tumour) [9]: 0 | Hepatotoxicity (association with vascular disease) [10]: 0 | Hepatotoxicity (acute) ([11]; Liver): 0% | Hepatotoxicity (cytolytic) [12]: 6 | Hepatotoxicity (granulomatous hepatitis) [13]: 0 | Hepatotoxicity (steatosis) [14]: 0 | Hepatotoxicity (acute) [15]: 6

COc1nc(C)nc(Cl)c1N=C1NCCN1 [MOXONIDINE]
Hepatotoxicity (moderate) ([1]; Liver): 0% | Hepatotoxicity (benign tumour) [2]: 0 | Hepatotoxicity (moderate) [3]: 0 | Hepatotoxicity (time to onset) [4]: 9 months | Hepatotoxicity (chronic liver disease) [5]: 0 | Hepatotoxicity (choleostasis) [6]: 1 | Hepatotoxicity (severe hepatitis) ([7]; Liver): 1 | Hepatotoxicity (cirrhosis) [8]: 0 | Hepatotoxicity (malignant tumour) [9]: 0 | Hepatotoxicity (association with vascular disease) [10]: 0 | Hepatotoxicity (acute) ([11]; Liver): 0% | Hepatotoxicity (cytolytic) [12]: 1 | Hepatotoxicity (granulomatous hepatitis) [13]: 0 | Hepatotoxicity (steatosis) [14]: 0 | Hepatotoxicity (acute) [15]: 1

COc1ccccc1OCCNCC(O)COc1cccc2[nH]c3ccccc3c12 (stereo not given) [CARVEDILOL]
Hepatotoxicity (moderate) ([1]; Liver): 0% | Hepatotoxicity (benign tumour) [2]: 0 | Hepatotoxicity (moderate) [3]: 0 | Hepatotoxicity (time to onset) [4]: 6 months | Hepatotoxicity (chronic liver disease) [5]: 0 | Hepatotoxicity (choleostasis) [6]: 1 | Hepatotoxicity (severe hepatitis) ([7]; Liver): 0 | Hepatotoxicity (cirrhosis) [8]: 0 | Hepatotoxicity (malignant tumour) [9]: 0 | Hepatotoxicity (association with vascular disease) [10]: 0 | Hepatotoxicity (acute) ([11]; Liver): 0% | Hepatotoxicity (cytolytic) [12]: 1 | Hepatotoxicity (granulomatous hepatitis) [13]: 0 | Hepatotoxicity (steatosis) [14]: 0 | Hepatotoxicity (acute) [15]: 1

NCC(CC(=O)O)c1ccc(Cl)cc1 (stereo not given) [BACLOFEN]
Hepatotoxicity (moderate) [1]: 0% | Hepatotoxicity (benign tumour) [2]: 0 | Hepatotoxicity (moderate) [3]: 1 | Hepatotoxicity (time to onset) [4]: 3 weeks - 2 months | Hepatotoxicity (chronic liver disease) [5]: 0 | Hepatotoxicity (choleostasis) [6]: 1 | Hepatotoxicity (severe hepatitis) [7]: 0 | Hepatotoxicity (cirrhosis) [8]: 0 | Hepatotoxicity (malignant tumour) [9]: 0 | Hepatotoxicity (association with vascular disease) [10]: 0 | Hepatotoxicity (acute) [11]: 0% | Hepatotoxicity (cytolytic) [12]: 1 | Hepatotoxicity (granulomatous hepatitis) [13]: 0 | Hepatotoxicity (steatosis) [14]: 0 | Hepatotoxicity (acute) [15]: 3

CC(=O)O[C@H]1C(=O)[C@@]2(C)[C@H]([C@H](OC(=O)c3ccccc3)[C@]3(O)C[C@H](OC(=O)[C@H](O)[C@@H](NC(=O)c4ccccc4)c4ccccc4)C(C)=C1C3(C)C)[C@]1(OC(C)=O)CO[C@@H]1C[C@@H]2O [PACLITAXEL]
Hepatotoxicity (moderate) ([1]; Liver): 50% | Hepatotoxicity (benign tumour) [2]: 0 | Hepatotoxicity (moderate) [3]: 7 | Hepatotoxicity (time to onset) [4]: 1 days | Hepatotoxicity (chronic liver disease) [5]: 0 | Hepatotoxicity (choleostasis) ([6]; Liver): 0 | Hepatotoxicity (severe hepatitis) ([7]; Liver): 0 | Hepatotoxicity (cirrhosis) [8]: 0 | Hepatotoxicity (malignant tumour) [9]: 0 | Hepatotoxicity (association with vascular disease) [10]: 0 | Hepatotoxicity (acute) ([11]; Liver): 6% | Hepatotoxicity (cytolytic) ([12]; Liver): 3 | Hepatotoxicity (granulomatous hepatitis) ([13]; Liver): 0 | Hepatotoxicity (steatosis) [14]: 0 | Hepatotoxicity (acute) [15]: 5

Cc1cc(O)c(C(=O)N[C@@H](C(=O)N[C@@H]2C(=O)N3C(C(=O)O)=C(CSc4nnnn4C)CS[C@H]23)c2ccc(O)cc2)cn1 [CEFPIRAMIDE]
Hepatotoxicity (moderate) [1]: 10% | Hepatotoxicity (benign tumour) [2]: 0 | Hepatotoxicity (moderate) [3]: 5 | Hepatotoxicity (time to onset) [4]: 1 month | Hepatotoxicity (chronic liver disease) [5]: 0 | Hepatotoxicity (choleostasis) [6]: 0 | Hepatotoxicity (severe hepatitis) [7]: 0 | Hepatotoxicity (cirrhosis) [8]: 0 | Hepatotoxicity (malignant tumour) [9]: 0 | Hepatotoxicity (association with vascular disease) [10]: 0 | Hepatotoxicity (acute) [11]: 0% | Hepatotoxicity (cytolytic) [12]: 1 | Hepatotoxicity (granulomatous hepatitis) [13]: 0 | Hepatotoxicity (steatosis) [14]: 0 | Hepatotoxicity (acute) [15]: 1

Cc1ccc(C(=O)c2ccc(CC(=O)O)n2C)cc1 [TOLMETIN]
Hepatotoxicity (moderate) ([1]; Liver): 14.6% | Hepatotoxicity (benign tumour) [2]: 0 | Hepatotoxicity (moderate) [3]: 3 | Hepatotoxicity (time to onset) [4]: 3 weeks | Hepatotoxicity (chronic liver disease) [5]: 0 | Hepatotoxicity (choleostasis) [6]: 1 | Hepatotoxicity (severe hepatitis) ([7]; Liver): 0 | Hepatotoxicity (cirrhosis) [8]: 0 | Hepatotoxicity (malignant tumour) [9]: 0 | Hepatotoxicity (association with vascular disease) [10]: 0 | Hepatotoxicity (acute) ([11]; Liver): 0% | Hepatotoxicity (cytolytic) [12]: 0 | Hepatotoxicity (granulomatous hepatitis) [13]: 0 | Hepatotoxicity (steatosis) [14]: 0 | Hepatotoxicity (acute) [15]: 1

CCN(CC)CCOc1ccc(C(=C(Cl)c2ccccc2)c2ccccc2)cc1 [CLOMIPHENE]
Hepatotoxicity (moderate) [1]: 0% | Hepatotoxicity (benign tumour) [2]: 1 | Hepatotoxicity (moderate) [3]: 1 | Hepatotoxicity (time to onset) [4]: 2 weeks - 8 years | Hepatotoxicity (chronic liver disease) [5]: 0 | Hepatotoxicity (choleostasis) [6]: 1 | Hepatotoxicity (severe hepatitis) [7]: 0 | Hepatotoxicity (cirrhosis) [8]: 0 | Hepatotoxicity (malignant tumour) [9]: 1 | Hepatotoxicity (association with vascular disease) [10]: 0 | Hepatotoxicity (acute) [11]: 0% | Hepatotoxicity (cytolytic) [12]: 1 | Hepatotoxicity (granulomatous hepatitis) [13]: 0 | Hepatotoxicity (steatosis) [14]: 0 | Hepatotoxicity (acute) [15]: 2

O=c1[nH]c2ccccc2n1C1CCN(CCCC(c2ccc(F)cc2)c2ccc(F)cc2)CC1 [PIMOZIDE]
Hepatotoxicity (moderate) [1]: 0% | Hepatotoxicity (benign tumour) [2]: 0 | Hepatotoxicity (moderate) [3]: 2 | Hepatotoxicity (time to onset) [4]: 3 days | Hepatotoxicity (chronic liver disease) [5]: 0 | Hepatotoxicity (choleostasis) [6]: 0 | Hepatotoxicity (severe hepatitis) [7]: 0 | Hepatotoxicity (cirrhosis) [8]: 0 | Hepatotoxicity (malignant tumour) [9]: 0 | Hepatotoxicity (association with vascular disease) [10]: 0 | Hepatotoxicity (acute) [11]: 0% | Hepatotoxicity (cytolytic) [12]: 0 | Hepatotoxicity (granulomatous hepatitis) [13]: 0 | Hepatotoxicity (steatosis) [14]: 0 | Hepatotoxicity (acute) [15]: 0
